According to ChEMBL document CHEMBL1201862, “PubChem BioAssay data set” (2004):
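Grown in 96-well plates, cells were treated for 48 hours with each compound at five concentrations. Insufficient inhibition: endpoint recorded as highest concentration tested. The concentration for 50% growth inhibition is given as GI50.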 Activity calls are given as the source filed them. No stated cut-off is given here; in the data, active = GI50 up to about 1.1 µM and inactive = higher.

Columns and labels:
Test in all cases: DTP human tumour cell line panel, 48 h
A549 = system: A549
SR = system: SR
HCT-116 = system: HCT-116
OVCAR-4 = system: OVCAR-4
MOLT-4 = system: MOLT-4
HCT-15 = system: HCT-15
NCI-H522 = system: NCI-H522
CAKI-1 = system: CAKI-1
CCRF-CEM = system: CCRF-CEM
SF-268 = system: SF-268
RPMI-8226 = system: RPMI-8226
KM12 = system: KM12
LOX IMVI = system: LOX IMVI
NCI-H23 = system: NCI-H23
PC-3 = system: PC-3
SK-OV-3 = system: SK-OV-3
SK-MEL-28 = system: SK-MEL-28
Hs-578T = system: Hs-578T
ACHN = system: ACHN
SNB-19 = system: SNB-19
SW-620 = system: SW-620
OVCAR-8 = system: OVCAR-8
K562 = system: K562
IGROV-1 = system: IGROV-1
SN12C = system: SN12C
COLO 205 = system: COLO 205
HT-29 = system: HT-29
SNB-75 = system: SNB-75
T47D = system: T47D
DU-145 = system: DU-145
MCF7 = system: MCF7
EKVX = system: EKVX
HOP-92 = system: HOP-92
MDA-N = system: MDA-N
MDA-MB-231 = system: MDA-MB-231
Malme-3M = system: Malme-3M
HCC 2998 = system: HCC 2998
RXF 393 = system: RXF 393
OVCAR-5 = system: OVCAR-5
UACC-257 = system: UACC-257
UO-31 = system: UO-31
UACC-62 = system: UACC-62
MDA-MB-435 = system: MDA-MB-435
HOP-62 = system: HOP-62
U-251 = system: U-251
M14 = system: M14
NCI-H460 = system: NCI-H460
BT-549 = system: BT-549
NCI/ADR-RES = system: NCI/ADR-RES
786-0 = system: 786-0
SF-539 = system: SF-539
TK-10 = system: TK-10
SK-MEL-5 = system: SK-MEL-5
SK-MEL-2 = system: SK-MEL-2
SF-295 = system: SF-295
NCI-H226 = system: NCI-H226
HL-60 = system: HL-60
OVCAR-3 = system: OVCAR-3

## COc1ccc(C(C#N)NC23CC4CC(CC(C4)C2)C3)cc1OC (stereo not drawn)
A549
  GI50: > 100 µM (inactive)
SR
  GI50: > 100 µM (inactive)
HCT-116
  GI50: > 100 µM (inactive)
OVCAR-4
  GI50: > 100 µM (inactive)
MOLT-4
  GI50: > 100 µM (inactive)
HCT-15
  GI50: > 100 µM
NCI-H522
  GI50: > 100 µM (inactive)
CAKI-1
  GI50: > 100 µM (inactive)
CCRF-CEM
  GI50: > 100 µM (inactive)
SF-268
  GI50: > 100 µM (inactive)
RPMI-8226
  GI50: > 100 µM (inactive)
KM12
  GI50: > 100 µM (inactive)
LOX IMVI
  GI50: > 100 µM (inactive)
NCI-H23
  GI50: > 100 µM (inactive)
PC-3
  GI50: > 100 µM (inactive)
SK-OV-3
  GI50: > 100 µM (inactive)
SK-MEL-28
  GI50: > 100 µM (inactive)
Hs-578T
  GI50: > 100 µM (inactive)
ACHN
  GI50: > 100 µM (inactive)
SNB-19
  GI50: > 100 µM (inactive)
SW-620
  GI50: > 100 µM (inactive)
OVCAR-8
  GI50: > 100 µM (inactive)
K562
  GI50: > 100 µM (inactive)
IGROV-1
  GI50: > 100 µM (inactive)
SN12C
  GI50: > 100 µM (inactive)
COLO 205
  GI50: > 100 µM (inactive)
HT-29
  GI50: > 100 µM (inactive)
SNB-75
  GI50: > 100 µM (inactive)
T47D
  GI50: > 100 µM (inactive)
DU-145
  GI50: > 100 µM (inactive)
MCF7
  GI50: > 100 µM (inactive)
EKVX
  GI50: > 100 µM (inactive)
HOP-92
  GI50: 96.8 µM (inactive)
MDA-N
  GI50: > 100 µM (inactive)
MDA-MB-231
  GI50: > 100 µM (inactive)
Malme-3M
  GI50: > 100 µM (inactive)
HCC 2998
  GI50: > 100 µM (inactive)
RXF 393
  GI50: > 100 µM (inactive)
OVCAR-5
  GI50: > 100 µM (inactive)
UACC-257
  GI50: > 100 µM (inactive)
UO-31
  GI50: 84.3 µM (inactive)
UACC-62
  GI50: > 100 µM (inactive)
MDA-MB-435
  GI50: > 100 µM (inactive)
HOP-62
  GI50: > 100 µM (inactive)
U-251
  GI50: > 100 µM (inactive)
M14
  GI50: > 100 µM (inactive)
NCI-H460
  GI50: > 100 µM (inactive)
BT-549
  GI50: > 100 µM (inactive)
NCI/ADR-RES
  GI50: > 100 µM (inactive)
786-0
  GI50: > 100 µM (inactive)
SF-539
  GI50: > 100 µM (inactive)
TK-10
  GI50: > 100 µM (inactive)
SK-MEL-5
  GI50: > 100 µM (inactive)
SK-MEL-2
  GI50: > 100 µM (inactive)
SF-295
  GI50: > 100 µM (inactive)
NCI-H226
  GI50: 79.4 µM (inactive)
HL-60
  GI50: > 100 µM (inactive)
OVCAR-3
  GI50: > 100 µM (inactive)
